Assay results: patent US20260356846A1, “STATIN DERIVATIVES AND METHODS OF USING THE SAME” (The General Hospital Corporation, priority 2023, published 2026)
Where two headings read alike, the source gives them in different places.

Columns and labels:
[1] = test system: STMN2 (WT STMN2-NLuc SH-SY5Y cells); experiment: STMN2 nanoluciferase assay in WT SH-SY5Y cells (Table A: WT TDP-32; Table B: WT HD Luciferase); format: cell-based, human; conditions: WT cell line
Experimental: (§1) Neuroblastoma cells (ATCC) were cultured in DMEM/F12 (Gibco) supplemented with 10% fetal-bovine serum (Omega) and 1% penicillin-streptomycin (Gibco) at 37 °C with 5% CO2. For knockdown experiments, cells were transfected with SMARTpool ON-TARGETplus siRNA or control siRNA pool (D001810-10) (GE Dharmacon) at a final concentration of 50 nM, for 96 h in two doses (0, 24 h), after complexing with Lipofectamin RNAiMAX (Invitrogen) in Opti-MEM (Gibco) for 10 min.
(§2) WT and TDP-mut (N352S) SH-SY5Y cells were edited using CRISPR-Cas9 to express Nanoluciferase at the C-terminus of both endogenous STMN2 alleles. A single guided RNA targeting STMN2 C-terminus was designed (Benchling webtool) and cloned into pSpCas9-2A-green fluorescent protein (GFP) plasmid (px458-Addgene) using the BbsI restriction site. The sequence for guided RNA targeting STMN2 was: […]. For the repair template, overlapping fragments of 800 bp STMN2 homology arms flanking Nanoluciferase (NLuc, Promega) were generated and ligated into pUC57 backbone. A 42 bp GS-linker was also included 5′ to NLuc to prevent steric hindrance of the reporter to the final STMN2 exon. Fragments were ligated using Gibson Assembly and nucleofected simultaneously with pSpCas9-2A-GFP-gRNA plasmid using the Amaxa Nucleofector (assay A-023). Forty-eight hours following electroporation, cells were collected, and GFP-positive cells sorted and single-cell seeded into 96-well plates using the SH800S Sony cell sorter. Individual clones were expanded and DNA was extracted for PCR amplification of the STMN2 Ex5 genomic locus using primers within NLuc and outside the STMN2 5′ homology arm to confirm presence of the insert. The entire STMN2 coding region and all exon-intron junctions (>500-bp length of each intronic region) were then sequenced to verify the absence of any additional DNA alteration. qPCR analysis was performed with a wild-type isogenic SH-SY5Y cell line that had undergone the mutagenesis attempt but not acquired the insertion mutation during the original screening process.
(§3) TDP-mut STMN2-NLuc SH-SY5Y cells were used in small-molecule screening at ICCB-Longwood. 3000 cells/well were plated in white 384-well plates using a 50 ul sample volume. 24 hours after plating, compounds were added using 100 nl pin transfer. 24 hours later, 25 ul NLuc assay was added to each well according to manufacturer instructions (Promega, Cat #). Plates were shaken for 1 min prior to luminescence readings using EnVision2 machine. DMSO-only and WT STMN2-NLuc cells were included as negative and positive controls respectively on each plate, producing an average Z′score of ~0.7 across the screen. Each library plate was conducted in duplicate, and Z-scores calculated for each compound. For subsequent validation experiments, cell numbers in each well were quantified by hoescht staining at 1 μg/ml for 15 mins at 37C in black, clear bottom plates, prior to imaging at 4× using automated microscopy (ImageXpressMicro). Nuclei were then counted using a custom algorithm, and luciferase assay run as above. Luminescence results were then normalised against cell counts as RLU/cell.
(§4) Each compound was tested in triplicate in log doses ranging 0.01 μM−10 μM. The values are represented in luminescence normalized to the number of cells in the well, wherein darker grey correlates to higher RLU per cell and higher STMN2 protein expression.

[2] = test system: STMN2 (TDP-mut (N352S) STMN2-NLuc SH-SY5Y cells); experiment: STMN2 nanoluciferase assay in TDP-43 mutant SH-SY5Y cells (Table A: mut TDP-43; Table B: mut HD Luciferase); format: cell-based, human; conditions: mutant TDP-43 cell line
Experimental: as §1, §2, §3, §4

[3] = Homo sapiens, SH-SY5Y, Table A, read-out: EC50, WT TDP-32
[4] = Homo sapiens, SH-SY5Y, Table B, read-out: EC50, WT HD Luciferase
[5] = Homo sapiens, SH-SY5Y, Table A, read-out: EC50, mut TDP-43
[6] = Homo sapiens, SH-SY5Y, Table B, read-out: EC50, mut HD Luciferase
[7] = Homo sapiens, SH-SY5Y, Table B, Emax

Row | EC50 [1, 3] | EC50 [1, 4] | EC50 [2, 5] | EC50 [2, 6] | HD Luciferase (WT, Emax) ([1]; Table B, Emax) | EC50 ([1]; Table B, read-out: EC50, WT HD Luciferase) | EC50 ([2]; Table B, read-out: EC50, mut HD Luciferase) | SMILES | maximal fold induction [1, 7] | HD Luciferase (mut, Emax) ([2]; Table B)
1 | – | 10 to 50 nM | – | 10 to 50 nM | – | – | – | Cc1cc2nc(C3CC3)c(/C=C/[C@@H](O)C[C@@H](O)CC(=O)O)c(-c3ccc(F)cc3)c2s1 [Example I-6, (3R,5S,E)-7-(5-cyclopropyl-7-(4-fluorophenyl)-2-methylthieno[3,2-b]pyridin-6-yl)-3,5-dihydroxyhept-6-enoic acid] | 1.25 to 1.5 | –
2 | – | 10 to 50 nM | – | 10 to 50 nM | – | – | – | O=C(O)C[C@H](O)C[C@H](O)/C=C/c1c(C2CC2)nc2c(C3CC3)csc2c1-c1ccc(F)cc1 [Example I-25, (3R,5S,E)-7-(3,5-dicyclopropyl-7-(4-fluorophenyl)thieno[3,2-b]pyridin-6-yl)-3,5-dihydroxyhept-6-enoic acid] | 1.5 to 1.75 | –
3 | 100 to 500 nM | 10 to 50 nM | 100 to 500 nM | 10 to 50 nM | – | – | – | Cc1nc2cc(C3CC3)c(/C=C/[C@@H](O)C[C@@H](O)CC(=O)O)c(-c3ccc(F)cc3)c2s1 [Example I-8, (3R,5S,E)-7-(5-cyclopropyl-7-(4-fluorophenyl)-2-methylbenzo[d]thiazol-6-yl)-3,5-dihydroxyhept-6-enoic acid] | 1.25 to 1.5 | –
4 | ≥ 10000 nM | ≥ 500 nM | 5000 to 10000 nM | ≥ 500 nM | – | – | – | O=C(O)C[C@H](O)C[C@H](O)/C=C/c1c(C2CC2)cc2scnc2c1-c1ccc(F)cc1 [Example I-9, (3R,5S,E)-7-(6-cyclopropyl-4-(4-fluorophenyl)benzo[d]thiazol-5-yl)-3,5-dihydroxyhept-6-enoic acid] | 1 to 1.25 | * (means≥1 and <1.25)
5 | 1000 to 5000 nM | 100 to 500 nM | 1000 to 5000 nM | 100 to 500 nM | – | – | – | Cc1nc2c(-c3ccc(F)cc3)c(/C=C/[C@@H](O)C[C@@H](O)CC(=O)O)c(C3CC3)cc2s1 [Example I-7, (3R,5S,E)-7-(6-cyclopropyl-4-(4-fluorophenyl)-2-methylbenzo[d]thiazol-5-yl)-3,5-dihydroxyhept-6-enoic acid] | 1 to 1.25 | ** (means≥1.25 and <1.5)
6 | – | – | – | – | ** (means≥1.25 and <1.5) | 100 to 500 nM | 50 to 100 nM | Cc1cc2c(-c3ccc(F)cc3)c(/C=C/[C@@H](O)C[C@@H](O)CC(=O)O)c(C3CC3)nc2s1 [Example I-5b, (3R,5S,E)-7-(6-cyclopropyl-4-(4-fluorophenyl)-2-methylthieno[2,3-b]pyridin-5-yl)-3,5-dihydroxyhept-6-enoic acid] | – | ** (means≥1.25 and <1.5)
7 | – | 10 to 50 nM | – | 10 to 50 nM | – | – | – | Cc1csc2nc(C3CC3)c(/C=C/[C@@H](O)C[C@@H](O)CC(=O)O)c(-c3ccc(F)cc3)c12 [Example I-10, (3R,5S,E)-7-(6-cyclopropyl-4-(4-fluorophenyl)-3-methylthieno[2,3-b]pyridin-5-yl)-3,5-dihydroxyhept-6-enoic acid] | – | –
8 | 100 to 500 nM | 10 to 50 nM | 100 to 500 nM | 10 to 50 nM | – | – | – | O=C(O)C[C@H](O)C[C@H](O)/C=C/c1c(C2CC2)nc2ccsc2c1-c1ccc(F)cc1 [Example I-4, (3R,5S,E)-7-(5-cyclopropyl-7-(4-fluorophenyl)thieno[3,2-b]pyridin-6-yl)-3,5-dihydroxyhept-6-enoic acid] | – | –

Continued, molecule first:

Row | SMILES | EC50 [1, 3] | EC50 [1, 4] | EC50 [2, 5] | EC50 [2, 6] | HD Luciferase (WT, Emax) ([1]; Table B, Emax) | EC50 ([1]; Table B, read-out: EC50, WT HD Luciferase) | EC50 ([2]; Table B, read-out: EC50, mut HD Luciferase) | maximal fold induction [1, 7] | HD Luciferase (mut, Emax) ([2]; Table B)
9 | COCc1c(C2CCC2)nc(C2CC2)c(/C=C/[C@@H](O)C[C@@H](O)CC(=O)O)c1-c1ccc(F)cc1 [II-5, (3R,5S,E)-7-(6-cyclobutyl-2-cyclopropyl-4-(4-fluorophenyl)-5-(methoxymethyl)pyridin-3-yl)-3,5-dihydroxy hept-6-enoic acid] | ≤ 100 nM | ≤ 10 nM | ≤ 100 nM | ≤ 10 nM | – | – | – | – | –
10 | Cc1cc(F)ccc1-c1cc(C23CC(C2)C3)nc(C2CC2)c1/C=C/[C@@H](O)C[C@@H](O)CC(=O)O [II-14, (3R,5S,E)-7-(6-(bicyclo[1.1.1]pentan-1-yl)-2-cyclopropyl-4-(4-fluoro-2-methylphenyl)pyridin-3-yl)-3,5-dihydroxyhept-6-enoic acid] | – | 100 to 500 nM | – | 100 to 500 nM | – | – | – | – | –
11 | CC[C@H](C)C(=O)O[C@H]1C[C@H](O)C=C2C=C[C@H](C)[C@H](CC[C@@H](O)C[C@@H](O)CC(=O)O)[C@H]21 [Pravastatin] | ≥ 10000 nM | – | ≥ 10000 nM | – | – | – | – | – | –
12 | O=C(O)C[C@H](O)C[C@H](O)/C=C/c1c(-c2ccc(F)cc2Cl)cc(C2CC2)nc1C1CC1 [II-8, (3R,5S,E)-7-(4-(2-chloro-4-fluorophenyl)-2,6-dicyclopropylpyridin-3-yl)-3,5-dihydroxyhept-6-enoic acid] | 100 to 500 nM | 10 to 50 nM | 100 to 500 nM | 10 to 50 nM | – | – | – | – | –
13 | COCc1c(C2CC2)nc(C2CC2)c(/C=C/[C@@H](O)C[C@@H](O)CC(=O)O)c1-c1c(F)cc(F)cc1Cl [II-21, (3R,5S,E)-7-(4-(2-chloro-4,6-difluorophenyl)-2,6-dicyclopropyl-5-(methoxymethyl)pyridin-3-yl)-3,5-dihydroxyhept-6-enoic acid] | – | ≤ 10 nM | – | ≤ 10 nM | – | – | – | 1.5 to 1.75 | –
14 | COCc1c(C2CC2)nc(C2CC2)c(/C=C/[C@@H](O)C[C@@H](O)CC(=O)O)c1-c1ccc(Cl)cc1F [II-19, (3R,5S,E)-7-(4-(4-chloro-2-fluorophenyl)-2,6-dicyclopropyl-5-(methoxymethyl)pyridin-3-yl)-3,5-dihydroxyhept-6-enoic acid] | – | 10 to 50 nM | – | 10 to 50 nM | – | – | – | – | –
15 | O=C(O)C[C@H](O)C[C@H](O)/C=C/c1c(C2CC2)nc2ccccc2c1-c1ccc(F)cc1 [Pitavastatin, pitavastatin, reference compound] | 500 to 1000 nM | – | 500 to 1000 nM | – | – | – | – | – | –
16 | COCc1c(C2CC2)nc(C2CC2)c(/C=C/[C@@H](O)C[C@@H](O)CC(=O)O)c1-c1c(C)cccc1F [II-18, (3R,5S,E)-7-(2,6-dicyclopropyl-4-(2-fluoro-6-methylphenyl)-5-(methoxymethyl)pyridin-3-yl)-3,5-dihydroxyhept-6-enoic acid] | – | 10 to 50 nM | – | 10 to 50 nM | – | – | – | – | –
17 | COCc1c(C2CCC2)nc(C2CCC2)c(/C=C/[C@@H](O)C[C@@H](O)CC(=O)O)c1-c1ccc(F)cc1 [II-6, (3R,5S,E)-7-(2,6-dicyclobutyl-4-(4-fluorophenyl)-5-(methoxymethyl)pyridin-3-yl)-3,5-dihydroxyhept-6-enoic acid] | – | 10 to 50 nM | – | 10 to 50 nM | – | – | – | – | –
18 | COCc1c(C(C)C)nc(C(C)C)c(/C=C/[C@@H](O)C[C@@H](O)CC(=O)O)c1-c1ccc(F)cc1 [Cerivastatin, cerivastatin, reference compound] | 100 to 500 nM | – | ≤ 100 nM | – | – | – | – | – | –
19 | Cc1csc2c(-c3ccc(F)cc3Cl)c(/C=C/[C@@H](O)C[C@@H](O)CC(=O)O)c(C3CC3)nc12 [Example I-15, (3R,5S,E)-7-(7-(2-chloro-4-fluorophenyl)-5-cyclopropyl-3-methylthieno[3,2-b]pyridin-6-yl)-3,5-dihydroxyhept-6-enoic acid] | – | 10 to 50 nM | – | 10 to 50 nM | – | – | – | – | –
20 | COCc1c(C2CC2)nc(C2CC2)c(/C=C/[C@@H](O)C[C@@H](O)CC(=O)O)c1-c1cc(F)ccc1C [II-24, (3R,5S,E)-7-(2,6-dicyclopropyl-4-(5-fluoro-2-methylphenyl)-5-(methoxymethyl)pyridin-3-yl)-3,5-dihydroxyhept-6-enoic acid] | – | 10 to 50 nM | – | 10 to 50 nM | – | – | – | 1.25 to 1.5 | ** (means≥1.25 and <1.5)
